The IC50 is the concentration that inhibits the measured activity by half.

Bounds are passed on as bounds.

The values below come from patent US8658661B2, “Oxadiazole inhibitors of leukotriene production” (Boehringer Ingelheim International GmbH, priority 2010, dated 2014).

In test [1] the target is T1, recombinant human FLAP protein (Homo sapiens, UniProt P20292).
T1 construct: made in house; host or cells: Sf9 insect cells (100,000×g membrane pellet used)
T1 sequence (P20292 1-161): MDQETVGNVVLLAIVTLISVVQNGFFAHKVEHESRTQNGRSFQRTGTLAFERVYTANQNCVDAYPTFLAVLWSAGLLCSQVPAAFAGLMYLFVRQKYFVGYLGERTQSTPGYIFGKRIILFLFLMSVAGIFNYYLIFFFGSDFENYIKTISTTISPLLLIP
As to the kind of experiment: FLAP binding assay (SPA, displacement of [125I]L-691,831). The following applies: membranes of sf9 cells expressing recombinant human FLAP; [125I]L-691,831 probe; read-out: FLAP binding IC50. The essentials: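 Membranes from sf9 cells expressing human FLAP in pH 7.5 Tris buffer (MgCl2, EDTA, PMSF). Non-specific binding defined with 10 μM cold L-691,831.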
For orientation: Displacement assays read how much labelled ligand stays bound in the presence of the test substance.

The test system of test [2] is synthesis of LTB4 in human whole blood. The test is described as follows: Human whole blood assay (inhibition of LTB4 synthesis, calcimycin stimulated). The test is classed as cell-based. As to conditions: heparinized human whole blood, calcimycin 20 μM, plasma LTB4. A digest of the protocol: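 Whole-blood cellular format, heparinized human donors: 15 min compound pretreatment, then 30 min calcimycin stimulation (20 μM final), both at 37° C. Low-speed centrifugation yields plasma, in which LTB4 is read by homogeneous time-resolved fluorescence immunoassay.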

As to `CC(C)C(C)(c1ccc(-c2cnc(N)nc2)cc1)c1noc(NCC2CCOCC2)n1` (stereo not shown) [Example 201, 5-[4-(1,2-Dimethyl-1-{5-[(tetrahydro-pyran-4-ylmethyl)-amino]-[1,2,4]oxadiazol-3-yl}-propyl)-phenyl]-pyrimidin-2-ylamine], the IC50 in test [1] is 0.013 µM; in test [2], 0.2 µM.

With `CC(C)C(C)(c1ccc(-c2cnc(N)nc2)cc1)c1noc(N2CCN(C)C(=O)C2)n1` (stereo not shown) [Example 202, 4-(3-{1-[4-(2-Amino-pyrimidin-5-yl)-phenyl]-1,2-dimethyl-propyl}-[1,2,4]oxadiazol-5-yl)-1-methyl-piperazin-2-one], the IC50 in test [1] is 0.046 µM; in test [2], 0.35 µM.

On to `CC(C)C(C)(c1ccc(-c2cnc(N)nc2)cc1)c1noc(N2CC(C)(O)C2)n1` (stereo not shown) [Example 203, 1-(3-{1-[4-(2-Amino-pyrimidin-5-yl)-phenyl]-1,2-dimethyl-propyl}-[1,2,4]oxadiazol-5-yl)-3-methyl-azetidin-3-ol], for which the IC50 in test [1] was determined as 0.015 µM; in test [2] it was 0.13 µM.

In the case of `CC(c1ccc(-c2cnc(N)nc2)cc1)(c1noc(N2CCCC2)n1)C1CC1` (stereo not shown) [Example 204, 5-{4-[1-Cyclopropyl-1-(5-pyrrolidin-1-yl-[1,2,4]oxadiazol-3-yl)-ethyl]-phenyl}-pyrimidin-2-ylamine], the IC50 came out at 0.013 µM in test [1] and 0.15 µM in test [2].

With `CC(c1ccc(-c2cnc(N)nc2)cc1)(c1noc(-c2cncn2C2COC2)n1)C1CC1` (stereo not shown) [Example 206, 5-(4-{1-Cyclopropyl-1-[5-(3-oxetan-3-yl-3H-imidazol-4-yl)-[1,2,4]oxadiazol-3-yl]-ethyl}-phenyl)-pyrimidin-2-ylamine], the IC50 in test [1] was found to be 0.023 µM; in test [2] it was 0.31 µM.

As for `CC(c1ccc(-c2cnc(N)nc2)cc1)(c1noc(-c2cn(C3COC3)cn2)n1)C1CC1` (stereo not shown) [Example 207, 5-(4-{1-Cyclopropyl-1-[5-(1-oxetan-3-yl-1H-imidazol-4-yl)-[1,2,4]oxadiazol-3-yl]-ethyl}-phenyl)-pyrimidin-2-ylamine], the results for the half-maximal inhibitory concentration (IC50) in test [1] and in test [2] were 0.092 µM and 0.7 µM, respectively.

Regarding `CC(C)C(C)(c1ccc(-c2cnc(N)nc2)cc1)c1noc(N2CCC(S(C)(=O)=O)CC2)n1` (stereo not shown) [Example 208, 5-(4-{1-[5-(4-Methanesulfonyl-piperidin-1-yl)-[1,2,4]oxadiazol-3-yl]-1,2-dimethyl-propyl}-phenyl)-pyrimidin-2-ylamine], the IC50 in test [1] amounted to 0.013 µM; in test [2] it was 0.25 µM.

`CC(C)C(C)(c1ccc(-c2cnc(N)nc2)cc1)c1noc(N2CCC(CO)CC2)n1` (stereo not shown) [Example 209, [1-(3-{1-[4-(2-Amino-pyrimidin-5-yl)-phenyl]-1,2-dimethyl-propyl}-[1,2,4]oxadiazol-5-yl)-piperidin-4-yl]-methanol]: the IC50 in test [1] is 0.0082 µM; in test [2] it was 0.1 µM.

In the case of `C[C@@](c1ccc(-c2ccc(N)nc2)cc1)(c1noc(-c2cnc(N3CCNCC3)cn2)n1)C1CC1` [Example 210, 5-(4-{(R)-1-Cyclopropyl-1-[5-(3,4,5,6-tetrahydro-2H-[1,2′]bipyrazinyl-5′-yl)-[1,2,4]oxadiazol-3-yl]-ethyl}-phenyl)-pyridin-2-ylamine], the results for the IC50 in test [1] and in test [2] were 0.0044 µM and 0.19 µM, respectively.

With `CC(C)C(C)(c1ccc(-c2cnc(N)nc2)cc1)c1noc(N2CCN(CC(C)(C)O)CC2)n1` (stereo not shown) [Example 211, 1-[4-(3-{1-[4-(2-Amino-pyrimidin-5-yl)-phenyl]-1,2-dimethyl-propyl}-[1,2,4]oxadiazol-5-yl)-piperazin-1-yl]-2-methyl-propan-2-ol], the half-inhibitory concentration (IC50) in test [1] stood at 0.012 µM; in test [2] it was 0.23 µM.

For `CC(C)C(C)(c1ccc(-c2cnc(N)nc2)cc1)c1noc(N2CCC(CCO)CC2)n1` (stereo not shown) [Example 212, 2-[1-(3-{1-[4-(2-Amino-pyrimidin-5-yl)-phenyl]-1,2-dimethyl-propyl}-[1,2,4]oxadiazol-5-yl)-piperidin-4-yl]-ethanol], the concentration for half-maximal inhibition (IC50) is 0.012 µM in test [1] and 0.086 µM in test [2].

On to `CC(C)C(C)(c1ccc(-c2cnc(N)nc2)cc1)c1noc(N2CCC(C(N)=O)CC2)n1` (stereo not shown) [Example 213, 1-(3-{1-[4-(2-Amino-pyrimidin-5-yl)-phenyl]-1,2-dimethyl-propyl}-[1,2,4]oxadiazol-5-yl)-piperidine-4-carboxylic acid amide], for which the IC50 in test [1] was found to be 0.014 µM; in test [2], 0.33 µM.

`C[C@](c1ccc(-c2cnc(N)cn2)cc1)(c1noc(-c2cnc(N3CCNCC3)cn2)n1)C1CC1` [Example 214, 5-(4-{(S)-1-Cyclopropyl-1-[5-(3,4,5,6-tetrahydro-2H-[1,2′]bipyrazinyl-5′-yl)-[1,2,4]oxadiazol-3-yl]-ethyl}-phenyl)-pyrazin-2-ylamine]: the IC50 stood at 0.012 µM in test [1] and 0.45 µM in test [2].

Consider `C[C@@](c1ccc(-c2cnc(N)nc2)cc1)(c1noc(-c2cnn(CCN3CCCC3)c2)n1)C1CC1` [Example 215, 5-[4-((R)-1-Cyclopropyl-1-{5-[1-(2-pyrrolidin-1-yl-ethyl)-1H-pyrazol-4-yl]-[1,2,4]oxadiazol-3-yl}-ethyl)-phenyl]-pyrimidin-2-ylamine], for which the IC50 in test [1] was found to be 0.0036 µM; in test [2] it was 0.028 µM.

On to `CNC1CCN(c2nc(C(C)(c3ccc(-c4cnc(N)nc4)cc3)C(C)C)no2)CC1` (stereo not shown) [Example 217, 5-(4-{1,2-Dimethyl-1-[5-(4-methylamino-piperidin-1-yl)-[1,2,4]oxadiazol-3-yl]-propyl}-phenyl)-pyrimidin-2-ylamine], for which the IC50 in test [1] came to 0.09 µM; in test [2], 1.2 µM.

As to `CC(C)C(C)(c1ccc(-c2cnc(N)nc2)cc1)c1noc(N2CCC(N(C)C)CC2)n1` (stereo not shown) [Example 218], the IC50 was 0.13 µM in test [1] and 0.92 µM in test [2].

As to `CC(C)C(C)(c1ccc(-c2cnc(N)nc2)cc1)c1noc(N2CCC(C(=O)O)CC2)n1` (stereo not shown) [Example 219, 1-(3-{1-[4-(2-Amino-pyrimidin-5-yl)-phenyl]-1,2-dimethyl-propyl}-[1,2,4]oxadiazol-5-yl)-piperidine-4-carboxylic acid], the figures for the IC50 in test [1] and in test [2] were 0.039 µM and > 5 µM, respectively.

Turning to `CO[C@@H]1CCN(C(=O)Cn2cc(-c3nc([C@@](C)(c4ccc(-c5cnc(N)nc5)cc4)C4CC4)no3)cn2)C1` [Example 220, 2-[4-(3-{(R)-1-[4-(2-Amino-pyrimidin-5-yl)-phenyl]-1-cyclopropyl-ethyl}-[1,2,4]oxadiazol-5-yl)-pyrazol-1-yl]-1-((R)-3-methoxy-pyrrolidin-1-yl)-ethanone], the results for the IC50 in test [1] and in test [2] were 0.0085 µM and 0.21 µM, respectively.

For the compound `CO[C@H]1CCN(C(=O)Cn2cc(-c3nc([C@@](C)(c4ccc(-c5cnc(N)nc5)cc4)C4CC4)no3)cn2)C1` [Example 221, 2-[4-(3-{(R)-1-[4-(2-Amino-pyrimidin-5-yl)-phenyl]-1-cyclopropyl-ethyl}-[1,2,4]oxadiazol-5-yl)-pyrazol-1-yl]-1-((S)-3-methoxy-pyrrolidin-1-yl)-ethanone], the figures for the IC50 in test [1] and in test [2] were 0.0062 µM and 0.15 µM, respectively.

Turning to `CC(C)C(C)(c1ccc(-c2cnc(N)nc2)cc1)c1noc(N2CCC(N)CC2)n1` (stereo not shown) [Example 222, 5-(4-{1-[5-(4-Amino-piperidin-1-yl)-[1,2,4]oxadiazol-3-yl]-1,2-dimethyl-propyl}-phenyl)-pyrimidin-2-ylamine], the results for the IC50 in test [1] and in test [2] were 0.13 µM and 1.7 µM, respectively.

On to `CC(C)C(C)(c1ccc(-c2cnc(N)nc2)cc1)c1noc(CC(C)(C)O)n1` (stereo not shown) [Example 225, 1-(3-{1-[4-(2-Amino-pyrimidin-5-yl)-phenyl]-1,2-dimethyl-propyl}-[1,2,4]oxadiazol-5-yl)-2-methyl-propan-2-ol], for which the half-maximal inhibitory concentration (IC50) was found to be 0.016 µM in test [1] and 0.35 µM in test [2].

On to `CNc1ncc(-c2ccc([C@](C)(c3noc(-c4cnn(CC(=O)N(C)C)c4)n3)C3CC3)cc2)cn1` [Example 226, 2-[4-(3-{(R)-1-Cyclopropyl-1-[4-(2-methylamino-pyrimidin-5-yl)-phenyl]-ethyl}-[1,2,4]oxadiazol-5-yl)-pyrazol-1-yl]-N,N-dimethyl-acetamide], for which the IC50 amounted to 0.002 µM in test [1] and 0.03 µM in test [2].

For `COCCOCc1nc(C(C)(c2ccc(-c3cnc(N)nc3)cc2)C(C)C)no1` (stereo not shown) [Example 229, 5-(4-{1-[5-(2-Methoxy-ethoxymethyl)-[1,2,4]oxadiazol-3-yl]-1,2-dimethyl-propyl}-phenyl)-pyrimidin-2-ylamine], the IC50 in test [1] came out at 0.099 µM; in test [2] it was 0.55 µM.

On to `CNC(=O)Cn1cc(-c2nc([C@@](C)(c3ccc(-c4cnc(N)nc4)cc3)C3CC3)no2)cn1` [Example 230, 2-[4-(3-{(R)-1-[4-(2-Amino-pyrimidin-5-yl)-phenyl]-1-cyclopropyl-ethyl}-[1,2,4]oxadiazol-5-yl)-pyrazol-1-yl]-N-methyl-acetamide], for which the values for the IC50 in test [1] and in test [2] were 0.0038 µM and 0.16 µM, respectively.

As for `CNC(=O)Cn1cc(-c2nc([C@](C)(c3ccc(-c4cnc(N)nc4)cc3)C3CC3)no2)cn1` [Example 231, 2-[4-(3-{(S)-1-[4-(2-Amino-pyrimidin-5-yl)-phenyl]-1-cyclopropyl-ethyl}-[1,2,4]oxadiazol-5-yl)-pyrazol-1-yl]-N-methyl-acetamide], the results for the IC50 in test [1] and in test [2] were 0.12 µM and 0.7 µM, respectively.

For `COCCc1nc(C(C)(c2ccc(-c3cnc(N)nc3)cc2)C(C)C)no1` (stereo not shown) [Example 232, 5-(4-{1-[5-(2-Methoxy-ethyl)-[1,2,4]oxadiazol-3-yl]-1,2-dimethyl-propyl}-phenyl)-pyrimidin-2-ylamine], the IC50 came out at 0.037 µM in test [1] and 0.37 µM in test [2].
